How the values were obtained:
MDA-MB-231 = assay: Antiproliferative activity against human MDA-MB-231 cells after 48 hrs by MTT assay; type: functional, cell-based; details: MDA-MB-231, 48 h
SK-N-SH = assay: Antiproliferative activity against human SK-N-SH cells after 48 hrs by MTT assay; type: functional, cell-based
A549 = assay: Antiproliferative activity against human A549 cells after 48 hrs by MTT assay; type: functional, cell-based; details: A549, 48 h
MRC5 = assay: Antiproliferative activity against human MRC5 cells after 48 hrs by MTT assay; type: cell-based; details: MRC5, 48 h

| Structure (SMILES) | IC50 (MDA-MB-231) [µM] | IC50 (SK-N-SH) [µM] | IC50 (A549) [µM] | IC50 (MRC5) [µM] |
| --- | --- | --- | --- | --- |
| Cc1nn(-c2ccccc2)c2c1[C@@H]1c3c(ccc4c(=O)c(-c5ccccc5)c(C)oc34)OC[C@@H]1C(C)(C)O2 | > 100 | > 100 | > 100 | > 100 |
| Cc1oc2c3c(ccc2c(=O)c1C)OC[C@H]1[C@@H]3C2=C(CC(C)(C)CC2=O)OC1(C)C | > 100 | > 100 | > 100 | > 100 |
| CC(=O)C1=C(C)OC(C)(C)[C@H]2COc3ccc4c(=O)c(C)c(C)oc4c3[C@@H]12 | > 100 | 10.7 | > 100 | > 100 |
| Cc1oc2c3c(ccc2c(=O)c1-c1ccccc1)OC[C@H]1[C@@H]3c2c(n(C)c(=O)n(C)c2=O)OC1(C)C | > 100 | 10.5 | > 100 | > 100 |
| Cc1oc2c3c(ccc2c(=O)c1-c1ccccc1)OC[C@H]1[C@@H]3C2=C(CC(C)(C)CC2=O)OC1(C)C | > 100 | > 100 | > 100 | > 100 |
| Cc1coc2c3c(ccc2c1=O)OC[C@H]1[C@@H]3C2=C(CC(C)(C)CC2=O)OC1(C)C | > 100 | > 100 | > 100 | > 100 |
| Cc1oc2c3c(ccc2c(=O)c1C)OC[C@H]1[C@@H]3CC(=O)OC1(C)C | > 100 | > 100 | 0.09 | 0.6 |
| CCOC(=O)C1=C(C)OC(C)(C)[C@H]2COc3ccc4c(=O)c(C)c(C)oc4c3[C@@H]12 | > 100 | 10.8 | 10.9 | 0.9 |
| Cc1coc2c3c(ccc2c1=O)OC[C@H]1[C@@H]3C2=C(CCCC2=O)OC1(C)C | > 100 | > 100 | > 100 | > 100 |
| Cc1oc2c3c(ccc2c(=O)c1C)OC[C@H]1[C@@H]3C2=C(CCCC2=O)OC1(C)C | > 100 | > 100 | > 100 | > 100 |
| Cc1oc2c3c(ccc2c(=O)c1C)OC[C@H]1[C@@H]3c2c(c3ccccc3oc2=O)OC1(C)C | > 100 | 1.05 | 0.1 | 0.6 |
| Cc1oc2c3c(ccc2c(=O)c1-c1ccccc1)OC[C@H]1[C@@H]3C2=C(CCCC2=O)OC1(C)C | > 100 | > 100 | > 100 | > 100 |
| Cc1coc2c3c(ccc2c1=O)OC[C@H]1[C@@H]3CC(=O)OC1(C)C | > 100 | > 100 | 11.2 | > 100 |
| Cc1nn(-c2ccccc2)c2c1[C@@H]1c3c(ccc4c(=O)c(C)c(C)oc34)OC[C@@H]1C(C)(C)O2 | > 100 | 10.6 | > 100 | > 100 |
| Cc1oc2c3c(ccc2c(=O)c1C)OC[C@H]1[C@@H]3c2c(n(C)c(=O)n(C)c2=O)OC1(C)C | > 100 | 1.06 | 0.1 | > 100 |
